Data published in patent publication US20140301961A1, “COMPOUNDS WITH ANTI-AGING ACTIVITIES” (priority 2011, published 2014).
“Also recorded” adds a separate entry of the source.

How the values were obtained:
VEGF = assay: Inflammation induced VEGF synthesis in cultured dermal fibroblasts; type: cell-based, human; conditions: inflammatory inducer PMA (FIG. 10)
Method: (§1) MMP-inhibitory activity for compounds of the invention was also assessed on human dermal fibroblasts. Dermal fibroblasts were cultured in Dulbecco's Modified Eagle Medium (DMEM) (Invitrogen) with 10% EBS (ex. Invitrogen) and 1% Pencillin/Streptavidin (ex. Invitrogen). To induce inflammation in the cells, PMA (phorbol myristate acetate) (ex. Sigma) was used at a concentration of 10 nM. […] The cells were stimulated for 24 h and the culture supernatant was collected and stored at −20° C. until further analysis.
(§2) Fluorokine MultiAnalyte Profiling (xMAP) using the BioPlex (ex. Biorad) dual laser flow-based sorting and detection analyzers manufactured by Luminex corporation (Luminex, Austin, Tex.) was employed to measure levels of MMP in conditioned media samples of stimulated dermal fibroblasts. The technology incorporated polystyrene microspheres dyed internally with differing ratios of two spectrally distinct fluorophores to create a family of different spectrally addressed bead sets. The bead utilized in this study was conjugated with a biotinylated capture antibody specific for a unique MMPs, The assay was performed without antecedent serum depletion. Results were compared with medium from cells treated with vehicle only (DMSO). The assays utilized a 96-well microplate format and were processed according to the manufacturer's protocol, including generation of a standard curve for each target prepared in background assay diluents. Values that fell within the linear range of the calibration assay were accepted. Samples were analyzed using the Bio-Plex suspension array system and Bio-Plex Manager software 4.0 (Bio-Rad Laboratories, Hercules, Calif.). Quantities were determined by comparison to standard curves obtained for the different MMP.
Cell culture and cytokine analysis was carried out on human dermal fibroblasts as described in Example 3.1. The methodology was adapted in order analyze VEGF production.

GM-CSF = assay: UV-induced GM-CSF expression in skin explants; type: cell-based, human; conditions: topical 1% w/w solution in propylene glycol, 120 mJ/cm^2 UVA and UVB (FIG. 9)
Method: (§3) Full thickness skin from surgical waste material from breast reductions was collected. Subcutaneous fat was removed with a scalpel. 8 mm punch biopsies was taken from the skin and referred to as skin explants. Thereafter, the explants were put on Millipore cell culture inserts (12 mm in diameter). Inserts containing skin explants were put in 6-well plate (1 insert/well) and 1 mL of supplemented keratinocyte medium (Cascade Biologics) was added to each well to allow survival and nutrition of the explants. […] Supernatants were thereafter collected and analyzed for GM-CSF production.

pro-collagen type 1 = assay: Pro-collagen 1 ELISA in dermal fibroblasts; type: cell-based, human; conditions: 24 hour stimulation, 3 donors (FIG. 5)
Method: as §1
Fibroblast cells were cultured as outlined in Example 3.1 and treated with compounds of the invention The secretion of pro-collagen in the cell culture supernatants were analyzed using Pro-Collagen 1 specific ELISA (#8003; ex. Quidel). Results were compared with cell culture supernatants from DMSO vehicle treated cells. The assays utilized a 96-well microplate format and were processed according to the manufacturer's protocol, including generation of a standard curve prepared in background assay diluents. Absorbance of the assay dye was read at a Synergy HT plate reader. Values that fell within the linear range of the calibration assay were accepted. Quantities were determined by comparison to standard curve obtained for pro-collagen 1.

[1] = test system: Fibroblast growth factor (FGF); assay: FGF production in human skin explants; type: cell-based; conditions: topical (FIG. 13)
Method: as §3
Human Skin Explants were Obtained and Treated as Described in Example 7.3.
The methodology described in Example 3.1 was adapted in order analyze FGF production in skin explants.

[2] = test system: prostaglandin-endoperoxide synthase 1 (PTGS1); assay: Affymetrix gene array on skin explants, PTGS1; type: cell-based, human; conditions: topical, 24 hours
Text: Subcutaneous fat from full thickness skin, obtained from surgical waste material from breast reduction procedures, was removed with a scalpel. Three healthy Caucasian female donors were used for this study. The female donors differed from those of the skin-treatment study outlined previously 8 mm punch biopsies were taken from the skin (and these biopsies are now referred to as skin explants). Skin explants were put on Milipore cell culture inserts (12 mm diameter). Inserts containing skin explants were put in 6-well plates (one insert/well) and 1 mL of supplemented keratinocyte medium (ex Cascade Biologics) was added to each well. A tretinoin-containing cream (Aberela® ex. Janssen): 0.05% tretinoin in the cream, was applied topically to each explant (5 μL/cm^2) using a positive displacement pipette. A placebo cream without tretinoin was used as a control. The skin explants were incubated with tretinoin for 24 hours at 37° C. in 5% CO2-humidified air.
RNA concentration was measured with ND-1000 spectrophotometer (ex. NanoDrop Technologies) and RNA quality was evaluated using the Agilent 2100 bioanalyzer system (ex. Agilent Technologies). 250 nanograms of total RNA from each skin or skin explant sample was used to prepare biotinylated fragmented cRNA according to the GeneChip® 3′IVT Express Kit Manual (PN702646 Rev 1, ex. Affymetrix Inc.). Affymetrix GeneChip® expression arrays (Human Genome U133 Plus 2.0) were hybridized for 16 hours in a 45° C. incubator, rotated at 60 rpm. According to the GeneChip Expression Wash, Stain and Scan Manual (PN 702731 Rev 2, ex. Affymetrix Inc.) the arrays were washed and stained using the Fluidics Station 450 and scanned using the GeneChip® Scanner 3000 7G.
Analysis of the gene expression data was carried out in the statistical computing language R (http://www.r-project.org) using packages available from the Bioconductor project (www.bioconductor.org). The raw data was normalized using the robust multi-array average (RMA) method. In order to search for differentially expressed genes between the X samples and the Y samples group an empirical Bayes moderated t-test was then applied using the ‘limma’ package.
Skin explants were obtained as detailed in Example 3.1.

MMP3 = assay: PMA inflammation induced MMP3 production in human dermal fibroblasts; type: cell-based; conditions: PMA 10 nM, 24 h (FIG. 4)
Method: as §2, with “MMP-inhibitory activity for compounds of the invention was also assessed on human dermal fibroblasts. Dermal fibroblasts were cultured in Dulbecco's Modified Eagle Medium (DMEM) (Invitrogen) with 10% EBS (ex. Invitrogen) and 1% Pencillin/Streptavidin (ex. Invitrogen). To induce inflammation in the cells, PMA (phorbol myristate acetate) (ex. Sigma) was used at a concentration of 10 nM. […] The cells were stimulated for 24 h and the culture supernatant was collected and stored at −20° C. until further analysis. Fluorokine” for “Fluorokine”

Structure (SMILES): O=C1C[C@@H](c2ccc(O)cc2)Oc2cc(O)cc(O)c21 [Naringenin, (S)-2,3-Dihydro-5,7-dihydroxy-2-(4-hydroxyphenyl)-4H-1-benzopyran-4-one]
- inflammatory induced VEGF synthesis (VEGF): reduce inflammatory induced VEGF synthesis
- UV-induced expression of GM-CSF (GM-CSF): suppression of UV-induced expression of GM-CSF
- production of pro-collagen type 1 (pro-collagen type 1): convincing trend towards increasing
- FGF production [1]: higher FGF production than retinoic acid
- FGF production ([1]; listed as naringenin): Stimulation of FGF production
- PTGS1 gene expression [2]: −3.51 log 2−ratio
- inhibition of PMA inflammation induced MMP3 production (MMP3): inhibition

Structure (SMILES): CC(=O)N[C@@H](CC(=O)O)C(=O)O [N-Acetyl aspartic acid, (2S)-2-Acetamidobutanedioic acid]
- inflammatory induced VEGF synthesis (VEGF): reduce inflammatory induced VEGF synthesis
- UV-induced expression of GM-CSF (GM-CSF): suppression of UV-induced expression of GM-CSF
- production of pro-collagen type 1 (pro-collagen type 1): significantly increase
- FGF production [1]: higher FGF production than retinoic acid; also recorded: Stimulation of FGF production
- PTGS1 gene expression [2]: −0.20 log 2−ratio
- inhibition of PMA inflammation induced MMP3 production (MMP3): inhibition

Structure (SMILES): C=C1C[C@]23C[C@@]1(O)CC[C@H]2[C@@]12C=C[C@H](O)[C@@](C)(C(=O)O1)[C@@H]2[C@@H]3C(=O)O [Gibberellic acid, (3S,3aS,4S,4aS,7S,9aR,9bR,12S)-7,12-dihydroxy-3-methyl-6-methylene-2-oxoperhydro-4a,7-methano-9b,3-propenoazuleno[1,2-b]furan-4-carboxylic acid]
- inflammatory induced VEGF synthesis (VEGF): reduce inflammatory induced VEGF synthesis
- UV-induced expression of GM-CSF (GM-CSF): suppression of UV-induced expression of GM-CSF
- production of pro-collagen type 1 (pro-collagen type 1): significantly increase
- FGF production [1]: higher FGF production than retinoic acid; also recorded: Stimulation of FGF production
- PTGS1 gene expression [2]: −1.11 log 2−ratio
- inhibition of PMA inflammation induced MMP3 production (MMP3): inhibition
